Assay results reported in US12421229B2, “Hydropyrido[1,2-α]pyrazine compounds for the treatment of autoimmune disease” (Hoffmann-La Roche Inc., priority 2019, dated 2025).

Molecular target: T1, human TLR8 (Homo sapiens, UniProt Q9NR97)
T1 construct: host or cells: HEK293 (HEK-Blue hTLR8)
T1 sequence (Q9NR97 27-1041): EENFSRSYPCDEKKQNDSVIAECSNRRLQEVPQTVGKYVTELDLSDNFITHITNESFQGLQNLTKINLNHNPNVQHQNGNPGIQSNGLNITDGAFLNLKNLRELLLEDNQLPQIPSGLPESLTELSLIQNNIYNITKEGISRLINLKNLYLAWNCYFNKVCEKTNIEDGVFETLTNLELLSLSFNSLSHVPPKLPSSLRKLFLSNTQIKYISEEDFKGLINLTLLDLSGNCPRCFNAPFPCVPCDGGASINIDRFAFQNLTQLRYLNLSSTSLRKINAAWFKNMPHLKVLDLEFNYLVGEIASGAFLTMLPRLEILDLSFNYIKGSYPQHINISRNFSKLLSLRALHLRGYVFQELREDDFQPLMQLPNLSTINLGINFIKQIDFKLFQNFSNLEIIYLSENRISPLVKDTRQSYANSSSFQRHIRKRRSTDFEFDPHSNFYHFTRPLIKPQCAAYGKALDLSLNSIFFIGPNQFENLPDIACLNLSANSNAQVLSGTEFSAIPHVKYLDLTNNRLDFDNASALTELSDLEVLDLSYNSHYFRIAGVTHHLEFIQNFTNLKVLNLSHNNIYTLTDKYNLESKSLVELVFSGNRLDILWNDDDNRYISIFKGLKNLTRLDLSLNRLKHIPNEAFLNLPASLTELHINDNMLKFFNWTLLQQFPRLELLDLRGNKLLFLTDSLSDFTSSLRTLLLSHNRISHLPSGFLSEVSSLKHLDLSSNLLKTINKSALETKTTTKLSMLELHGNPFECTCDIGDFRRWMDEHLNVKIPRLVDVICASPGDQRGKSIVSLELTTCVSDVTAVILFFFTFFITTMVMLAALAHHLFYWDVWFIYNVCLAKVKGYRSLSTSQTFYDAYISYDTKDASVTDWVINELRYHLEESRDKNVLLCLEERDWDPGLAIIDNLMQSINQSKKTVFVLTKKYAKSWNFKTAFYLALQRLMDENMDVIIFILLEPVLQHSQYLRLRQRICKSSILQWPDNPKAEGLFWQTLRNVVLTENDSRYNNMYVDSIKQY
Experiment: HEK293-Blue-hTLR-8 cells assay
Assay type: cell-based
Details: HEK293-Blue-hTLR8 cells, R848 stimulation, 20 hrs, SEAP reporter; read-out: HEK/hTLR8 IC50
Source text: A stable HEK293-Blue-hTLR-8 cell line was purchased from InvivoGen (Cat. #: hkb-htlr8, San Diego, California, USA). These cells were originally designed for studying the stimulation of human TLR8 by monitoring the activation of NF-κB. A SEAP (secreted embryonic alkaline phosphatase) reporter gene was placed under the control of the IFN-β minimal promoter fused to five NF-κB and AP-1-binding sites. The SEAP was induced by activating NF-κB and AP-1 via stimulating HEK-Blue hTLR8 cells with TLR8 ligands. Therefore the reporter expression was declined by TLR8 antagonist under the stimulation of a ligand, such as R848, for incubation of 20 hrs. The cell culture supernatant SEAP reporter activity was determined using QUANTI-Blue™ kit (Cat. #: rep-qb1, Invivogen, San Diego, Ca, USA) at a wavelength of 640 nm, a detection medium that turns purple or blue in the presence of alkaline phosphatase.
HEK293-Blue-hTLR8 cells were incubated at a density of 250,000˜450,000 cells/mL in a volume of 170 μL in a 96-well plate in Dulbecco's Modified Eagle's medium (DMEM) containing 4.5 g/L glucose, 50 U/mL penicillin, […], […], 2 mM L-glutamine, 10% (v/v) heat-inactivated fetal bovine serum with addition of 20 μL test compound in a serial dilution in the presence of final DMSO at 1% and 10 μL of 60 uM R848 in above DMEM, perform incubation under 37° C. in a CO2 incubator for 20 hrs. Then 20 μL of the supernatant from each well was incubated with 180 μL Quanti-blue substrate solution at 37° C. for 2 hrs and the absorbance was read at 620˜655 nm using a spectrophotometer. The signaling pathway that TLR8 activation leads to downstream NF-κB activation has been widely accepted, and therefore similar reporter assay was modified for evaluating TLR8 antagonist.

Compound	IC50
CO[C@H]1CN(c2ccc([C@@H]3CCN4[C@@H](C3)CN(c3ccc(C#N)c5ncccc35)C[C@H]4C)cn2)C[C@@H]1N [Example 6, 5-[(4R,8R,9aS)-8-[6-[(3S,4S)-3-amino-4-methoxy-pyrrolidin-1-yl]-3-pyridyl]-4-methyl-1,3,4,6,7,8,9,9a-octahydropyrido[1,2-a]pyrazin-2-yl]quinoline-8-carbonitrile]	47 nM
[2H]c1ccc2c(N3C[C@@H]4C[C@H](Nc5ccc(C[C@H]6CNCCO6)cc5)CCN4[C@H](C)C3)ccc(C#N)c2n1 [Example 34, 5-[(4R,8R,9aS)-4-methyl-8-[4-[[(2S)-morpholin-2-yl]methyl]anilino]-1,3,4,6,7,8,9,9a-octahydropyrido[1,2-a]pyrazin-2-yl]-2-deuterio-quinoline-8-carbonitrile]	40 nM
C[C@@H]1CN(c2ccc(C#N)c3ncccc23)C[C@@H]2C[C@@H](Oc3ccc(N4CCNCC4)nc3)CCN21 [Example 16, 5-[(4R,8S,9aS)-4-methyl-8-[(6-piperazin-1-yl-3-pyridyl)oxy]-1,3,4,6,7,8,9,9a-octahydropyrido[1,2-a]pyrazin-2-yl]quinoline-8-carbonitrile]	8 nM
C[C@@H]1CN(c2ccc(C#N)c3ncccc23)CC2C[C@H](c3ccc(N4CCNCC4)cc3)CCN21 (stereo partly drawn) [Example 3, 5-[(4R,8R)-4-methyl-8-(4-piperazin-1-ylphenyl)-1,3,4,6,7,8,9,9a-octahydropyrido[1,2-a]pyrazin-2-yl]quinoline-8-carbonitrile]	23 nM
C[C@@H]1CN(c2ccc(C#N)c3ncccc23)C[C@@H]2C[C@H](c3ccc(N4CC(N)C4)nc3)CCN21 [Example 7, 5-[(4R,8R,9aS)-8-[6-(3-aminoazetidin-1-yl)-3-pyridyl]-4-methyl-1,3,4,6,7,8,9,9a-octahydropyrido[1,2-a]pyrazin-2-yl]quinoline-8-carbonitrile]	125 nM
C[C@@H]1CN(c2ccc(C#N)c3ncccc23)C[C@@H]2C[C@@H](NCc3ccc(N4CCNCC4)cc3)CCN21 [Example 17, 5-[(4R,8S,9aS)-4-methyl-8-[(4-piperazin-1-ylphenyl)methylamino]-1,3,4,6,7,8,9,9a-octahydropyrido[1,2-a]pyrazin-2-yl]quinoline-8-carbonitrile]	54 nM
C[C@@H]1CN(c2ccc(C#N)c3ncccc23)C[C@@H]2C[C@H](Nc3ccc([C@H]4CNCCO4)cc3)CCN21 [Example 20, 5-[(4R,8R,9aS)-4-methyl-8-[4-[(2S)-morpholin-2-yl]anilino]-1,3,4,6,7,8,9,9a-octahydropyrido[1,2-a]pyrazin-2-yl]quinoline-8-carbonitrile]	50 nM
CO[C@@H]1CN(c2ccc(C3CN([C@@H]4CCN5[C@@H](C4)CN(c4ccc(C#N)c6ncccc46)C[C@H]5C)C3)cc2)C[C@H]1N [Example 30, 5-[(4R,8R,9aS)-8-[3-[4-[(3R,4R)-3-amino-4-methoxy-pyrrolidin-1-yl]phenyl]azetidin-1-yl]-4-methyl-1,3,4,6,7,8,9,9a-octahydropyrido[1,2-a]pyrazin-2-yl]quinoline-8-carbonitrile]	69 nM
C[C@@H]1CN(c2ccc(C#N)c3ncccc23)C[C@@H]2C[C@@H](c3ccc(CC4CNCCO4)cc3)CCN21 (stereo partly drawn) [Example 26, 5-[(4R,8S,9aS)-4-methyl-8-[4-(morpholin-2-ylmethyl)phenyl]-1,3,4,6,7,8,9,9a-octahydropyrido[1,2-a]pyrazin-2-yl]quinoline-8-carbonitrile]	27 nM
C[C@@H]1CN(c2ccc(C#N)c3ncccc23)C[C@@H]2C[C@@H](c3ccc(C4CNCCO4)cc3)CCN21 (stereo partly drawn) [Example 24, 5-[(4R,8S,9aS)-4-methyl-8-(4-morpholin-2-ylphenyl)-1,3,4,6,7,8,9,9a-octahydropyrido[1,2-a]pyrazin-2-yl]quinoline-8-carbonitrile]	14 nM
C[C@@H]1CN(c2ccc(C#N)c3ncccc23)C[C@@H]2C[C@H](c3ccc(N4C[C@@H](N)[C@@H](F)C4)nc3)CCN21 [Example 19, 5-[(4R,8R,9aS)-8-[6-[(3R,4S)-3-amino-4-fluoro-pyrrolidin-1-yl]-3-pyridyl]-4-methyl-1,3,4,6,7,8,9,9a-octahydropyrido[1,2-a]pyrazin-2-yl]quinoline-8-carbonitrile]	63 nM
C[C@@H]1CN(c2ccc(C#N)c3ncccc23)C[C@@H]2C[C@H](Nc3ccc(C[C@@H]4CNCCO4)cc3)CCN21 [Example 21, 5-[(4R,8R,9aS)-4-methyl-8-[4-[[(2R)-morpholin-2-yl]methyl]anilino]-1,3,4,6,7,8,9,9a-octahydropyrido[1,2-a]pyrazin-2-yl]quinoline-8-carbonitrile]	54 nM
C[C@@H]1CN(c2ccc(C#N)c3ncccc23)C[C@@H]2C[C@H](NCc3ccc(N4CCNCC4)cc3)CCN21 [Example 1, 5-[(4R,8R,9aS)-4-methyl-8-[(4-piperazin-1-ylphenyl)methylamino]-1,3,4,6,7,8,9,9a-octahydropyrido[1,2-a]pyrazin-2-yl]quinoline-8-carbonitrile]	67 nM
CO[C@@H]1CN(c2ccc([C@@H]3CCN4[C@@H](C3)CN(c3ccc(C#N)c5ncccc35)C[C@H]4C)cn2)C[C@@H]1N [Example 13, 5-[(4R,8R,9aS)-8-[6-[(3S,4R)-3-amino-4-methoxy-pyrrolidin-1-yl]-3-pyridyl]-4-methyl-1,3,4,6,7,8,9,9a-octahydropyrido[1,2-a]pyrazin-2-yl]quinoline-8-carbonitrile]	46 nM
C[C@@H]1CN(c2ccc(C#N)c3ncccc23)C[C@@H]2CC(c3ccc(C[C@@H]4CNCCO4)cc3)CCN21 (stereo in doubt) [Example 25, 5-[(4R,8R,9aS)-4-methyl-8-[4-[[(2R)-morpholin-2-yl]methyl]phenyl]-1,3,4,6,7,8,9,9a-octahydropyrido[1,2-a]pyrazin-2-yl]quinoline-8-carbonitrile]	30 nM
[2H]c1ccc2c(N3C[C@@H]4C[C@H](Nc5ccc(C[C@@H]6CNCCO6)cc5)CCN4[C@H](C)C3)ccc(C#N)c2n1 [Example 22, 5-[(4R,8R,9aS)-4-methyl-8-[4-[[(2R)-morpholin-2-yl]methyl]anilino]-1,3,4,6,7,8,9,9a-octahydropyrido[1,2-a]pyrazin-2-yl]-2-deuterio-quinoline-8-carbonitrile]	49 nM
CO[C@H]1CN(c2ccc(O[C@H]3CCN4[C@@H](C3)CN(c3ccc(C#N)c5ncccc35)C[C@H]4C)cn2)C[C@H]1N [Example 28, 5-[(4R,8S,9aS)-8-[[6-[(3R,4S)-3-amino-4-methoxy-pyrrolidin-1-yl]-3-pyridyl]oxy]-4-methyl-1,3,4,6,7,8,9,9a-octahydropyrido[1,2-a]pyrazin-2-yl]quinoline-8-carbonitrile]	7 nM
C[C@@H]1CN(c2ccc(C#N)c3ncccc23)C[C@@H]2C[C@H](N3CC(c4ccc(N5CCNCC5)cc4)C3)CCN21 [Example 9, 5-[(4R,8R,9aS)-4-methyl-8-[3-(4-piperazin-1-ylphenyl)azetidin-1-yl]-1,3,4,6,7,8,9,9a-octahydropyrido[1,2-a]pyrazin-2-yl]quinoline-8-carbonitrile]	36 nM
